From ChEMBL document CHEMBL1140123, “Whole structure-activity relationships of the fat-accumulation inhibitor (-)-ternatin: recognition of the importance of each amino acid residue” (J Med Chem, 2008)

Assays:
[1] = Toxicity in mouse 3T3L1 cells; assay type: cell-based; details: 3T3-L1 cells
[2] = test system: 3T3-L1; test: Inhibition of fat accumulation in mouse 3T3L1 cells assessed as liberated triglyceride after 7 days; assay type: functional, cell-based; details: 3T3-L1, 168 h
[3] = test system: 3T3-L1; test: Inhibition of fat accumulation in mouse 3T3L1 cells assessed as liberated triglyceride after 7 days relative to (-)-ternatin; assay type: functional

CC[C@H](C)[C@H]1NC(=O)[C@@H]([C@H](O)C(C)C)NC(=O)[C@@H](C)N(C)C(=O)[C@H](C)N(C)C(=O)[C@H](CC(C)C)NC(=O)[C@H](C)N(C)C(=O)[C@H](C)N(C)C1=O
IC50 [1]: > 29 µM
IC50 [2]: 1.6 µM

CC[C@H](C)[C@H]1NC(=O)[C@@H]([C@H](O)C(C)C)NC(=O)[C@@H](C)N(C)C(=O)[C@H](C)N(C)C(=O)[C@H](C)NC(=O)[C@H](CC(C)C)N(C)C(=O)[C@H](C)N(C)C1=O
Activity [3]: 0.002
IC50 [1]: > 130 µM
IC50 [2]: > 130 µM

CC[C@H](C)[C@H]1NC(=O)[C@@H](COCc2ccccc2)NC(=O)[C@H](C)N(C)C(=O)[C@H](C)N(C)C(=O)[C@H](CC(C)C)NC(=O)[C@H](CC(C)C)N(C)C(=O)[C@H](C)N(C)C1=O
IC50 [1]: 89 µM
IC50 [2]: 5.9 µM

CCCCCC[C@H]1C(=O)N[C@@H](CC(C)C)C(=O)N(C)[C@@H](C)C(=O)N(C)[C@H](C)C(=O)N[C@H]([C@H](O)C(C)C)C(=O)N[C@H]([C@@H](C)CC)C(=O)N(C)[C@@H](C)C(=O)N1C
IC50 [1]: 2.1 µM
IC50 [2]: 0.38 µM

CC[C@H](C)[C@H]1NC(=O)[C@@H](C)NC(=O)[C@@H](C)N(C)C(=O)[C@H](C)N(C)C(=O)[C@H](CC(C)C)NC(=O)[C@H](CC(C)C)N(C)C(=O)[C@H](C)N(C)C1=O
IC50 [1]: > 130 µM
IC50 [2]: 14 µM

CCCCCC[C@@H]1C(=O)N[C@H]([C@H](O)C(C)C)C(=O)N[C@H]([C@@H](C)CC)C(=O)N(C)[C@@H](C)C(=O)N(C)[C@@H](CC(C)C)C(=O)N[C@@H](CC(C)C)C(=O)N(C)[C@@H](C)C(=O)N1C
IC50 [1]: 0.066 µM
IC50 [2]: 0.016 µM

CCCCCC[C@@H]1NC(=O)[C@H](CC(C)C)N(C)C(=O)[C@H](C)N(C)C(=O)[C@@H]([C@@H](C)CC)NC(=O)[C@@H]([C@H](O)C(C)C)NC(=O)[C@@H](C)N(C)C(=O)[C@H](C)N(C)C1=O
Activity [3]: 0.002
IC50 [1]: > 130 µM
IC50 [2]: > 130 µM

CCCCCC[C@H]1NC(=O)[C@@H]([C@H](O)C(C)C)NC(=O)[C@@H](C)N(C)C(=O)[C@H](C)N(C)C(=O)[C@H](CC(C)C)NC(=O)[C@H](CC(C)C)N(C)C(=O)[C@H](C)N(C)C1=O
IC50 [1]: > 130 µM
IC50 [2]: 46 µM

CCCCCC[C@H]1C(=O)N(C)[C@H](C)C(=O)N[C@H]([C@H](O)C(C)C)C(=O)N[C@H]([C@@H](C)CC)C(=O)N(C)[C@@H](C)C(=O)N(C)[C@@H](CC(C)C)C(=O)N[C@@H](CC(C)C)C(=O)N1C
IC50 [1]: 0.96 µM
IC50 [2]: 0.12 µM

CCCCCC[C@H]1C(=O)N(C)[C@@H](CC(C)C)C(=O)N[C@@H](CC(C)C)C(=O)N(C)[C@@H](C)C(=O)N(C)[C@H](C)C(=O)N[C@H]([C@H](O)C(C)C)C(=O)N[C@H]([C@@H](C)CC)C(=O)N1C
IC50 [1]: > 12 µM
IC50 [2]: 1.1 µM

CC(C)C[C@@H]1NC(=O)[C@H](CC(C)C)N(C)C(=O)[C@H](C)N(C)C(=O)[C@@H](C)NC(=O)[C@@H]([C@H](O)C(C)C)NC(=O)[C@@H](C)N(C)C(=O)[C@H](C)N(C)C1=O
Activity [3]: 0.002
IC50 [1]: > 130 µM
IC50 [2]: > 130 µM
